In patent US20250204553A1, “FEED AND METHODS FOR CONTROLLING HEARTWORM INFECTIONS IN A MAMMAL” (In the Bowl Animal Health, Inc., priority 2022, published 2025):

Legend:
[1] = in vivo; cited from earlier work
Dirofilaria immitis [2] = assay: Efficacy of moxidectin administered per os to dogs for treatment and control of Dirofilaria immitis; type: in vivo; details: all 12 dogs; daily oral 0.8 μg/kg and 1.6 μg/kg up to Day 179; inoculated with 50 L3 D. immitis on Day -28 or Day 0; counted on or after Day 180; expected result
Dirofilaria immitis [3] = assay: Efficacy of monepantel administered per os to dogs for treatment and control of Dirofilaria immitis; type: in vivo; details: all 12 dogs; daily oral 0.083 mg/kg and 0.83 mg/kg up to Day 179; inoculated with 50 L3 D. immitis on Day -28 or Day 0; counted on or after Day 180; expected result

Compound | terminal half-life [1] | heartworms recovered (Dirofilaria immitis [2]) | heartworms recovered (Dirofilaria immitis [3])
CO/N=C1\C[C@]2(C[C@@H]3C[C@@H](C/C=C(\C)C[C@@H](C)/C=C/C=C4\CO[C@@H]5[C@H](O)C(C)=C[C@@H](C(=O)O3)[C@]45O)O2)O[C@H](/C(C)=C/C(C)C)[C@H]1C [moxidectin] | approximately 13.9 days | 0 | –
C[C@](C#N)(COc1cc(C#N)ccc1C(F)(F)F)NC(=O)c1ccc(SC(F)(F)F)cc1 [monepantel, N-[(2S)-2-cyano-1-[5-cyano-2-(trifluoromethyl)phenoxy]propan-2-yl]-4-(trifluoromethylsulfanyl)benzamide] | – | – | 0
ivermectin | 43.2 h | – | –
